The test system of the test is L1210 leukemia ip in BDF1 mice, survival T/C. The experiment in a line: NCI In Vivo Anticancer Drug Screen. Data for tumor model L1210 Leukemia (intraperitoneal) in B6D2F1 (BDF1) mice. The conditions noted are these: endpoint: mean survival time, higher = longer survival. In a few lines: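 In this screen, tumor-bearing mice given compound are compared to those given vehicle, and their survival values are reported as a treated-to-control quotient.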

Setting [1] is: dose: 100.0 mg/kg/injection, schedule: Q01DX009 (ip), vehicle: saline with Tween-80.
Where [2] appears, read: dose: 100.0 mg/kg/injection, schedule: Q04DX003 (ip), vehicle: saline with Tween-80.
Setting [3] is: dose: 200.0 mg/kg/injection, schedule: Q01DX009 (ip), vehicle: saline with Tween-80.
Setting [4] is: dose: 200.0 mg/kg/injection, schedule: Q04DX003 (ip), vehicle: saline with Tween-80.
Setting [5] is: dose: 400.0 mg/kg/injection, schedule: Q01DX009 (ip), vehicle: saline with Tween-80.
Setting [6] is: dose: 400.0 mg/kg/injection, schedule: Q04DX003 (ip), vehicle: saline with Tween-80.

Where “and” joins values, the source holds several entries; their conditions need not be identical. Equal values may be shown once. Inconclusive results and toxic doses are left out.

As for `COc1cc(C=Nc2ccc(-c3nc(C)sc3C)cc2)ccc1N(CCCl)CCCl`, the T/C is 200 % of control (dose: 11.0 mg/kg/injection, schedule: Q01DX009 (ip), vehicle: carboxymethylcellulose (CMC)); 118 % of control (dose: 11.1 mg/kg/injection, schedule: Q01DX001 (ip), vehicle: carboxymethylcellulose (CMC)); 90 % of control (dose: 16.6 mg/kg/injection, schedule: Q01DX009 (ip), vehicle: carboxymethylcellulose (CMC)); 202 % of control (dose: 25.0 mg/kg/injection, schedule: Q01DX001 (ip), vehicle: carboxymethylcellulose (CMC)).
With `CCOC(=O)Sc1ncnc2nc[nH]c12`, the T/C (dose: 10.0 mg/kg/injection, schedule: Q01DX Z (ip), vehicle: carboxymethylcellulose (CMC)) is 117 % of control.
In the case of `CCC[CH2][Sn]1([CH2]CCC)[O]OC(c2ccc(OC)cc2)[O]1` (centres undefined), the T/C is 95 % of control (dose: 6.25 mg/kg/injection, schedule: Q01DX005 (sc), vehicle: olive oil, sesame oil, peanut oil); 104 % of control and 88 % of control (dose: 6.25 mg/kg/injection, schedule: Q01DX009 (sc), vehicle: olive oil, sesame oil, peanut oil); 106 % of control (dose: 12.5 mg/kg/injection, schedule: Q01DX005 (sc), vehicle: olive oil, sesame oil, peanut oil); 104 % of control and 91 % of control (dose: 12.5 mg/kg/injection, schedule: Q01DX009 (sc), vehicle: olive oil, sesame oil, peanut oil); 95 % of control (dose: 25.0 mg/kg/injection, schedule: Q01DX005 (sc), vehicle: olive oil, sesame oil, peanut oil); 97 % of control (dose: 25.0 mg/kg/injection, schedule: Q04DX002 (sc), vehicle: olive oil, sesame oil, peanut oil). Besides, the T/C is, setting by setting: (dose: 50.0 mg/kg/injection, schedule: Q04DX002 (sc), vehicle: olive oil, sesame oil, peanut oil) 106 % of control; (dose: 100.0 mg/kg/injection, schedule: Q04DX002 (sc), vehicle: olive oil, sesame oil, peanut oil) 100 % of control.
Regarding `Cc1nc2ccc(O)cc2cc1CBr`, the T/C was 112 % of control (dose: 6.25 mg/kg/injection, schedule: Q01DX009 (ip), vehicle: saline); 104 % of control (dose: 12.5 mg/kg/injection, schedule: Q01DX009 (ip), vehicle: saline); 107 % of control (dose: 12.5 mg/kg/injection, schedule: Q04DX003 (ip), vehicle: saline); 106 % of control (dose: 25.0 mg/kg/injection, schedule: Q01DX009 (ip), vehicle: saline); 115 % of control (dose: 25.0 mg/kg/injection, schedule: Q04DX003 (ip), vehicle: saline); 97 % of control (dose: 50.0 mg/kg/injection, schedule: Q04DX003 (ip), vehicle: saline).
On to `CN(C)CCCN=NNc1nc[nH]c1C(N)=O`, for which the T/C is 95 % of control (dose: 100.0 mg/kg/injection, schedule: Q01DX001 (ip), vehicle: Klucel (hydroxypropylcellulose) (HPC)); 108 % of control (dose: 100.0 mg/kg/injection, schedule: Q04DX003 (ip), vehicle: Klucel (hydroxypropylcellulose) (HPC)); 91 % of control (dose: 200.0 mg/kg/injection, schedule: Q01DX001 (ip), vehicle: Klucel (hydroxypropylcellulose) (HPC)); 92 % of control (dose: 200.0 mg/kg/injection, schedule: Q04DX003 (ip), vehicle: Klucel (hydroxypropylcellulose) (HPC)); 95 % of control (dose: 400.0 mg/kg/injection, schedule: Q01DX001 (ip), vehicle: Klucel (hydroxypropylcellulose) (HPC)).
As for `COc1ccc(C(=O)C(C)Br)c(OCc2ccccc2)c1OC` (centres undefined), the T/C by setting is: under setting [1], 107 % of control; under setting [2], 106 % of control; under setting [3], 97 % of control; under setting [4], 90 % of control; under setting [5], 98 % of control; under setting [6], 105 % of control.
In the case of `Cc1ccc(NC(=O)COc2ccc(Cl)cc2Cl)c(C)c1`, the T/C is 104 % of control under setting [1]; 89 % of control under setting [2]; 101 % of control under setting [3]; 91 % of control under setting [4]; 96 % of control under setting [5]; 91 % of control under setting [6].
For the molecule `O=C(O)c1ccc2ccccc2c1C(=O)c1ccc(F)cc1`, the T/C is 101 % of control (dose: 100.0 mg/kg/injection, schedule: Q04DX002 (ip), vehicle: Klucel (hydroxypropylcellulose) (HPC)); 113 % of control (dose: 100.0 mg/kg/injection, schedule: Q04DX003 (ip), vehicle: other); 96 % of control (dose: 200.0 mg/kg/injection, schedule: Q04DX002 (ip), vehicle: Klucel (hydroxypropylcellulose) (HPC)); 97 % of control (dose: 200.0 mg/kg/injection, schedule: Q04DX003 (ip), vehicle: other); 92 % of control (dose: 400.0 mg/kg/injection, schedule: Q04DX002 (ip), vehicle: Klucel (hydroxypropylcellulose) (HPC)); 97 % of control (dose: 400.0 mg/kg/injection, schedule: Q04DX003 (ip), vehicle: other).
Turning to `Cc1cnc2ccccc2c1`, the T/C runs as follows: (dose: 100.0 mg/kg/injection, schedule: Q01DX001 (ip), vehicle: saline) 100 % of control; (dose: 200.0 mg/kg/injection, schedule: Q01DX001 (ip), vehicle: saline) 100 % of control.
As to `CCCCCC/C(=C\c1ccc(O)cc1)C(=O)O`, the T/C (dose: 50.0 mg/kg/injection, schedule: Q01DX001 (ip), vehicle: carboxymethylcellulose (CMC)) is 97 % of control; the T/C (dose: 100.0 mg/kg/injection, schedule: Q01DX001 (ip), vehicle: carboxymethylcellulose (CMC)) was 103 % of control; the T/C (dose: 200.0 mg/kg/injection, schedule: Q01DX001 (ip), vehicle: carboxymethylcellulose (CMC)) was 105 % of control; the T/C (dose: 400.0 mg/kg/injection, schedule: Q01DX001 (ip), vehicle: carboxymethylcellulose (CMC)) is 100 % of control.
Take `CSc1nnc(C)c(=O)[nH]1`: the T/C by setting is: (dose: 100.0 mg/kg/injection, schedule: Q01DX001 (ip), vehicle: saline with Tween-80) 100 % of control; (dose: 200.0 mg/kg/injection, schedule: Q01DX001 (ip), vehicle: saline with Tween-80) 102 % of control; (dose: 400.0 mg/kg/injection, schedule: Q01DX001 (ip), vehicle: saline with Tween-80) 97 % of control.
With `CCOC(=O)C(=N\Nc1cccc(C)c1C)/C(C)=N\NC(N)=S`, the T/C runs as follows: (dose: 75.0 mg/kg/injection, schedule: Q01DX001 (ip), vehicle: saline) 94 % of control; (dose: 150.0 mg/kg/injection, schedule: Q01DX001 (ip), vehicle: saline) 97 % of control; (dose: 300.0 mg/kg/injection, schedule: Q01DX001 (ip), vehicle: saline) 97 % of control.
Turning to `CCCC(C)C(=O)Nc1cccc(OC(=O)NC(C)C)c1` (centres undefined), the T/C was 89 % of control under setting [2], 87 % of control under setting [4] and 92 % of control under setting [6].
With `CN(C)C1=C(N2CC2)C(=O)C(N(C)C)=C(N2CC2)C1=O`, the T/C runs as follows: (dose: 0.09 mg/kg/injection, schedule: Q01DX001 (ip), vehicle: saline) 107 % of control; (dose: 0.09 mg/kg/injection, schedule: Q01DX009 (ip), vehicle: saline) 93 % of control and 116 % of control; (dose: 0.09 mg/kg/injection, schedule: Q04DX003 (ip), vehicle: saline) 94 % of control and 107 % of control; (dose: 0.18 mg/kg/injection, schedule: Q01DX001 (ip), vehicle: saline) 108 % of control; (dose: 0.18 mg/kg/injection, schedule: Q01DX009 (ip), vehicle: saline) 96 % of control and 108 % of control; (dose: 0.37 mg/kg/injection, schedule: Q01DX001 (ip), vehicle: saline) 97 % of control. Also, the T/C by setting is: (dose: 0.37 mg/kg/injection, schedule: Q01DX009 (ip), vehicle: saline) 114 % of control and 116 % of control; (dose: 0.75 mg/kg/injection, schedule: Q01DX001 (ip), vehicle: saline) 98 % of control; (dose: 0.75 mg/kg/injection, schedule: Q01DX009 (ip), vehicle: saline) 110 % of control; (dose: 1.5 mg/kg/injection, schedule: Q01DX001 (ip), vehicle: saline) 115 % of control; (dose: 1.5 mg/kg/injection, schedule: Q01DX009 (ip), vehicle: saline) 93 % of control.
As to `NCC1OC(OC2C(CO)OC(OC3C(O)C(N)CC(N)C3OC3OC(CO)C(O)CC3N)C2O)C(N)C(O)C1OC1OC(CO)C(O)C(O)C1O` (centres undefined), the T/C is 96 % of control (dose: 100.0 mg/kg/injection, schedule: Q01DX005 (ip), vehicle: saline); 100 % of control (dose: 100.0 mg/kg/injection, schedule: Q01DX009 (ip), vehicle: saline); 101 % of control (dose: 200.0 mg/kg/injection, schedule: Q01DX005 (ip), vehicle: saline); 110 % of control (dose: 200.0 mg/kg/injection, schedule: Q01DX009 (ip), vehicle: saline); 101 % of control (dose: 400.0 mg/kg/injection, schedule: Q01DX005 (ip), vehicle: saline); 100 % of control (dose: 400.0 mg/kg/injection, schedule: Q01DX009 (ip), vehicle: saline).
